{"source": "patent US20150018409A1", "about": "“CHIMERIC POLYPEPTIDES AND THEIR USE” (ADRIACELL S.P.A., priority 2003, published 2015)", "key": {"U2OS cells [1]": {"tested_on": "U2OS cells", "test": "FACS analysis of DNA content / cell cycle distribution", "type": "cell-based, human", "conditions": "for interaction with SCPVUTAT on the cell cycle: simultaneous incubation with SCPVUTAT", "protocol": "The distribution of the various phases of the cell cycle of the protein transduced cells was analysed by FACS analysis. Distribution of the DNA content of the cell populations was detected. 2n represents a diploid DNA equivalent (non replicated; G1 phase), 4n represents the tetraploid DNA equivalent (replicated; G2/M phase). For the FACS analysis the cells were separated employing the DDM mode that allows to estimate DNA content of a single cell. U2OS cells were grown for 24 hours (upper row) or 48 hours (lower row) in the presence of increasing amounts of […] (10 nM, 50 nM, 100 nM) as indicated and with only one addition of proteins; non treated cells (control); cells treated with a nuclease impaired derivative of […] (SC34, 100 nM). All the histograms shown represent a measure of DNA content relative to the cell numbers as indicated only on the upper right panel.\nU2OS cells were incubated with […] (10 nM, panel B), or with H2O2 (10 μM, panelC), or both ([…], 10 nM; H2O2, 10 μM; panel D), or with no agent as a control (panel A). Further treatment cells were analysed in FACS for DNA content; the percentage of the various cell cycle phases are indicated at the bottoms of the individual histograms.\nFinally, to confirm that the DSB's that are produced in vivo also induce perturbations in the cell cycle, DNA content in the various phases of the cell cycle was analysed by Fluorescence Activated Cell Sorting (FACS) after transduction of the proteins of the invention. After the treatment with diverse proteins at various concentrations and during different timepoints, the cells were fixed in 70% ethanol, treated with RNAse A and stained with propidium […].\nThe FACS analysis was done using a FACSCalibur™ (Becton Dickinson) apparatus. The obtained data were evaluated with the CellQuest™ software program package. At least 3×10^4 single events for every sample were analysed in the DDM mode. The statistic analysis of the DNA content distribution during the cell cycle was done with the MODFIT LT™ software program package. A 2N diploid DNA content correspond to cells in the G1 phase of the cell cycle, 4N represents a relative tetraploid DNA content and corresponds to G2 and/or M phase of the cell cycle. An intermediate DNA content represents S phase corresponding to a population actively replicating DNA during the cell cycle and a content that is below diploid 2N represents cells in apoptosis.\nU2OS cells were incubated with 10 nM […] and with 10 μM H2O2 alone or in combination ant the cell cycle profile was analysed by FACS."}, "[2]": {"tested_on": "AT-5 cells (ATM negative)", "conditions": "SCPVUTAT 100 nM or HU 1 mM", "method": "AT-5 cells, negative for ATM were treated with [sequence]\n(§1) P53 phosphorylation on Ser15 in response to [sequence] treatment was assayed in ATM positive or negative cell lines (MRC-5 and AT-5 respectively). For comparison parallel experiments were done with hydroxyurea (HU). […] For this immunoblotting experiments were done with extracts after treatment, by using specific antibodies to a phosphorylated Ser15 in p53 for specific detection."}, "[3]": {"tested_on": "MRC-5 cells (ATM positive)", "conditions": "SCPVUTAT 100 nM or HU 1 mM", "method": "[sequence] dependent Ser^15 phosphorylation of p53. The ATM positive cell-line MRC5 was treated with [sequence] (100 nM, SC) or with hydroxyurea (1 mM, HU) for the time periods as indicated; as a control non treated cells were used (O).\nas §1"}, "U2OS cells [4]": {"tested_on": "U2OS cells", "test": "Histone H2AX Ser139 phosphorylation, single cell fluorescence microscopy", "type": "cell-based, human", "conditions": "Wortmanin 50 μM with SCPVUTAT 100 nM, 60 minutes", "method": "U2OS cells were treated with [sequence] (100 nM, central column) for 60 minutes, in addition treatment was done with Wortmanin (50 μM, WM, right column), or with no agent as a control (left column). After treatment cells were stained with specific antibodies to H2AX-Ser-139 phosphorylated (red) or for Histone 2B (served as a control, green) and analysed on a single cell level by fluorescence microscopy.\nAs another example for a phosphorylation of a substrate of ATM in response to the object of the invention, histone H2AX Ser^139 phosphorylation was analysed. […] U2OS cells were treated for 60 minutes with [sequence], fixed and analysed for histone H2AX Ser^139 phosphorylation. Cells were analysed with a specific antiserum to phospho-Ser 139 on histone H2AX and analysed in the microscope on a single cell basis. As a control histone 2B was analysed."}, "[5]": {"tested_on": "U2OS osteosarcoma cells and IMR90 primary fibroblasts", "test": "Protein transduction of the chimeric proteins (immunoblot and immunofluorescence with PvuII antibody)", "type": "cell-based, human", "protocol": "For a comparison aliquots of the supernatants of the cell culture taken before extract preparation were included in the analysis (upper panel, SUPERNATANT).\nIn addition DNA costaining was obtained with propidium J after RNAse A digest (red, upper panel).\nThe transduction capacity of the chimeric proteins was assayed in U2OS osteosarcoma cells and in the IMR90 primary fibroblasts cells. The cells were grown in DMEM containing 10% FCS and treated with the proteins of the invention in the same medium, in general in the presence of antibiotics. After 10 minutes of incubation of the cells with increasing quantities of the fusion protein […] (1, 10, 50, 100, 200 nM) and with the protein SCPVU (single chain PvuII without TAT) and SC34 as a control (prepared as described for […] except that the enzyme PvuII contains a mutant in position 34) cell extracts were prepared, separated on SDS-PAGE and assayed by immuno-blot analysis with a monospecific antibody to PvuII. Further, uptake was assayed after 30 min of incubation by immuno-fluorescence analysis using PvuII specific antibodies and nuclear costaining with propidium iodide."}, "ATM, ATR and TOR": {"tested_on": "ATM, ATR and TOR", "conditions": "Sarkaria et al., 1999; target not stated with the value; cited from earlier work"}, "HCT116 (p53(+/+)) cells": {"tested_on": "HCT116 (p53(+/+)) cells", "test": "Cell cycle arrest point: nuclear morphology and immunofluorescence of cyclin B1 and Cdc25C", "type": "cell-based, human", "conditions": "30 hours; SCPVUTAT 100 nM or Taxol 0.2 μg/ml", "protocol": "Microscopic analysis of the HCT116 (p53(+/+)) cells not treated, or treated with […] (100 nM) for 30 hours, or with taxol (0.2 μg/ml). Immunofluorescence analysis was done with primary antibodies specific for cyclin B1 or specific for Cdc25C and coloured with secondary conjugates of FITC (green, cyclinB1) or TRITC (red, Cdc25C).\nMoreover, the initiation of mitosis, i.e. induced with the microtuble blocking agents Nocodazol or Taxol, can be detected by the nuclear activity of the Cdc2 kinase and also by nuclear localisation of Cdc25C. These assays allow to dissect the exact point of cell cycle arrest after […] treatment and this further allows to detect disturbations in this phase of the cell cycle relative to a positive control. Similar experiments are well known in the art also for other phases of the cell cycle. The assay shown in FIG. 7A and the immunofluorescence analysis shown in FIG. 14 show examples for these types of experiments.\nHCT116 (p53(+/+)) not treated, or treated for 30 hours with […] (100 nM), or with Taxol (0.2 μg/ml) were fixated with 3% PFA and treated with specific antibodies to cyclin B1 or for Cdc25C. The immunofluorescence was analysed with the microscope (see FIG. 14) with specific primary antibodies to cyclin B1 conjugated to FITC labelled secondary antibodies (green) or with specific primary antibodies to Cdc25C conjugated to TRITC labelled secondary antibodies (red)."}}}
{"compound": "C[C@@]1(CO)[C@H](O)CC[C@@]2(C)[C@H]1CC[C@H]1C[C@@H]3C[C@@]12CC[C@]3(O)CO", "note": "[aphidicolin]", "values": [{"measurement": "interaction with SCPVUTAT on the cell cycle", "setting": "U2OS cells [1]", "value": "no synergistic effect was observed"}]}
{"compound": "NC(=O)NO", "note": "[HU, hydroxyurea, reference compound]", "values": [{"measurement": "p53-Ser15 phosphorylation", "setting": "[2]", "value": "comparable however consistently higher"}, {"measurement": "p53-Ser15 phosphorylation", "setting": "[3]", "value": "comparable however consistently higher"}]}
{"compound": "OO", "note": "[H2O2]", "values": [{"measurement": "change of G2 phase", "setting": "U2OS cells [1]; 10 μM H2O2 alone", "value": "no increase in G2"}, {"measurement": "interaction with SCPVUTAT on the cell cycle", "setting": "U2OS cells [1]", "value": "synergistic effect"}]}
{"compound": "COC[C@H]1OC(=O)c2coc3c2[C@@]1(C)C1=C(C3=O)[C@@H]2CCC(=O)[C@@]2(C)C[C@H]1OC(C)=O", "note": "[Wortmanin, reference compound]", "values": [{"measurement": "effect on SCPVUTAT induced histone H2AX Ser139 phosphorylation", "setting": "U2OS cells [4]", "value": "antagonist for this reaction"}]}
{"compound": "Cn1c(=O)c2c(ncn2C)n(C)c1=O", "note": "[caffeine]", "values": [{"measurement": "influence of caffeine on the transduction capacity of SCPVUTAT", "setting": "[5]", "value": "nor does it influence the transduction capacity"}, {"measurement": "IC50", "setting": "ATM, ATR and TOR", "value": "< 1000", "unit": "µM"}, {"measurement": "effect of caffeine on the SCPVUTAT cell cycle stop", "setting": "U2OS cells [1]; 100 nM SCPVUTAT in combination with 2 mM caffeine, 30 hours", "value": "antagonist to the effect of SCPVUTAT in vivo"}, {"measurement": "cell cycle effect of caffeine alone", "setting": "U2OS cells [1]; 2 mM caffeine", "value": "moderate delay in the G1 phase"}]}
{"compound": "CC(=O)O[C@H]1C(=O)[C@@]2(C)[C@H]([C@H](OC(=O)c3ccccc3)[C@]3(O)C[C@H](OC(=O)[C@H](O)[C@@H](NC(=O)c4ccccc4)c4ccccc4)C(C)=C1C3(C)C)[C@]1(OC(C)=O)CO[C@@H]1C[C@@H]2O", "note": "[Taxol, reference compound]", "values": [{"measurement": "cell cycle stop from localisation of Cdc25C and cyclin B", "setting": "HCT116 (p53(+/+)) cells", "value": "stop in M phase"}]}
